These results are taken from article PMC9673926, “Nucleotide binding as an allosteric regulatory mechanism for Akkermansia muciniphila β-N-acetylhexosaminidase Am2136” (Gut Microbes, 2022).

The target of experiment [1] is T1, Am2136 R592A (Akkermansia muciniphila, UniProt B2UPR7, R592A).
T1 sequence (B2UPR7 20-756 R592A): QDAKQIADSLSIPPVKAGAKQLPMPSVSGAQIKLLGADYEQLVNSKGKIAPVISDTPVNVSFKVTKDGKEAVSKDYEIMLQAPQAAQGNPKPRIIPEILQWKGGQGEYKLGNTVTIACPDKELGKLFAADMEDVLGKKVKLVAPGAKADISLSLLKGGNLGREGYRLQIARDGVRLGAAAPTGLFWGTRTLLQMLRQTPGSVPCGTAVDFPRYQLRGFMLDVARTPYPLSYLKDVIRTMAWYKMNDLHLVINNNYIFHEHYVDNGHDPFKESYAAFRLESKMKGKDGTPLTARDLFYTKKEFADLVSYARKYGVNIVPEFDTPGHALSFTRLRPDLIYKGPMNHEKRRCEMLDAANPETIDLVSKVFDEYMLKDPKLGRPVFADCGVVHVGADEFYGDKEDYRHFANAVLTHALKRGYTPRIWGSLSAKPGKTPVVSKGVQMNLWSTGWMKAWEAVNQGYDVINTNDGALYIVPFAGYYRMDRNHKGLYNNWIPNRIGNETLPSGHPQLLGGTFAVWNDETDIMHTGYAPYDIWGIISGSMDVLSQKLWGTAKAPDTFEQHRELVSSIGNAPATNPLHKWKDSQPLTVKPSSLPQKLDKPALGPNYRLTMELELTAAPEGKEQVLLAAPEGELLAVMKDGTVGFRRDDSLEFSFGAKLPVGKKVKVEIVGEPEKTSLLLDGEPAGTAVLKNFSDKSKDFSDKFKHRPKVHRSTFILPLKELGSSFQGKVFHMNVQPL
Nature of the experiment: GDP regulated enzyme activity assay, mutant. The following applies: 1 mM GDP, substrate pNP-β-GlcNAc.

The target of experiment [2] is T2, Am2136 P595A+H597A (Akkermansia muciniphila, UniProt B2UPR7, H597A/P595A).
T2 sequence (B2UPR7 20-756 P595A/H597A): T1 sequence (B2UPR7 20-756 R592A) with A573R, P576A, H578A
The experiment can be described thus: GDP regulated enzyme activity assay, mutant. As to conditions: 1 mM GDP.

Experiment [3] addresses T2, Am2136 P595A+H597A. Nature of the experiment: Nucleotide binding affinity by intrinsic fluorescence, mutant. More on the design: The coding region (residue Q20-L756) of Am2136 without signal peptide was based on UniProt; 6XHis (N); made in house; host or cells: E. coli BL21 (DE3). How it is done:
(§1) The nucleotide binding ability was determined on Fluorescence Spectrometer Duetta (HORIBA) by measuring the change of peak intensity. The fluorescence was excited at 286 nm and emitted at 336 nm. And the measurement was processed under 400 V voltage with 2.5 nm excitation slit and 5 nm emission slit. The 120 μL reaction mixture contains 0–550 μM nucleotide, 5 μM proteins, 25 mM Tris pH 8.0 and 150 mM NaCl. The sample was incubated at 4°C for 5 min before testing.

In experiment [4] the target is T3, Am2136 Y550A (Akkermansia muciniphila, UniProt B2UPR7, Y550A).
T3 sequence (B2UPR7 20-756 Y550A): T1 sequence (B2UPR7 20-756 R592A) with Y531A, A573R
The experiment is described as above. More on the design: The coding region (residue Q20-L756) of Am2136 without signal peptide was based on UniProt; 6XHis (N); made in house; host or cells: E. coli BL21 (DE3). How it is done: as §1

Structures are written as SMILES. Residue numbers refer to the chain shown, from its start.

Consider `Nc1nc2c(ncn2[C@@H]2O[C@H](COP(=O)(O)OP(=O)(O)O)[C@@H](O)[C@H]2O)c(=O)[nH]1` [GDP], for which the Vmax in experiment [1] worked out at 442 ± 5 µmol/min; in experiment [2] (P595A+H597A, substrate pNP-β-GlcNAc), 447 ± 4 µmol/min. The “increase of kcat/Km with versus without GDP” value in experiment [2] (P595A/H597A) is listed as “roughly two-fold increase”. Also, the Kd in experiment [3] was 140 ± 4.26 µM; in experiment [4], 193 ± 7.36 µM.

Usually Vmax stands for the rate approached at saturating substrate. By Kd is commonly meant the free concentration of one partner at which half of the binding sites on the other are occupied at equilibrium, for simple one-to-one binding. High values mean weaker binding, low ones tighter binding.
